Data on 11 molecules can be found in article PMC6271425, “Synthesis and Sar Study of Diarylpentanoid Analogues as New Anti-Inflammatory Agents” (Molecules, 2014).

Broadly, the inhibition is the drop in the measured response relative to a control, in per cent.

One series relates to NO production in IFN-γ/LPS-stimulated RAW 264.7 macrophages. Kind of series: NO suppression (Griess nitrite determination) in IFN-γ/LPS-stimulated RAW 264.7 macrophages. The format is cell-based, murine. As to conditions: 50 µM test concentration; IFN-γ/LPS-stimulated RAW 264.7 cells; 50 µM. As to the method: The synthesized compounds were screened for NO suppression activity in IFN-γ/LPS-stimulated RAW 264.7 macrophages at a 50 µM test concentration. […] The IC50 values of the fifty-seven bioactive compounds were determined and compared to that of the positive control, curcumin. An MTT assay was also carried out to confirm that NO inhibition was not due to cytotoxicity. […] The complete bioassay results of all the compounds are provided as Table S2 in Supplementary Data. RAW 264.7 murine macrophages cells obtained from American Type Culture Collection (ATCC, Rockville, MD, USA) were grown in Dulbecco’s Modified Eagle’s Medium (DMEM) containing 10% fetal bovine serum (FBS) and 1% penicillin/streptomycin in a 95% air and 5% CO2 atmosphere at 37 °C. RAW 264.7 cells at 90%–95% confluency were detached and seeded (50,000 cells/well) into a 96-well culture plate with 50 μL of DMEM and incubated for 24 h. The cells were then stimulated in […] of LPS (Escherichia coli, serotype 0111:B4) and 1 ng/ml of interferon-gamma (IFN-γ) in the presence or absence of test compounds for 17 h. Nitrite concentration was then determined by Griess assay by reacting 50 μL of cell culture supernatant with 50 μL of Griess reagent (1% sulfanilamide and 0.1% N-(1-naphthyl)ethylenediamine dihydrochloride in 2.5% phosphoric acid) at room temperature. The optical density was measured at 550 nm after 5 min of incubation at room temperature with a microplate reader.
For orientation: The Griess reaction detects nitrite, a stable product of nitric oxide.
On to `Cc1ccc(/C=C/C(O)=C/C(=O)c2cc(Cl)ccc2O)o1` [Compound 38], for which the “NO Inhibition at 50 µM (%) ± S.E.M” value was 73.8 ± 1.1%.
On the same count and under the same terms, under `O=C(/C=C(O)/C=C/c1cccc(Cl)c1)c1cc(Br)ccc1O` [Compound 43] stands 81.2 ± 5.2%; under `COc1ccc(C(=O)/C=C(O)/C=C/c2ccccc2Cl)c(O)c1` [Compound 46], 76.2 ± 4.6%; under `COc1ccc(C(=O)/C=C(O)/C=C/c2ccccc2OC)c(O)c1` [Compound 48], 66.3 ± 6.8%.
For `COc1cccc(/C=C/C(O)=C/C(=O)c2ccc(OC)cc2O)c1` [Compound 49], the “NO Inhibition at 50 µM (%) ± S.E.M” value worked out at 57.5 ± 6.5%.
Same read-out and setting: the value for `COc1ccc(C(=O)/C=C(O)/C=C/c2ccc(OC)c(OC)c2)c(O)c1` [Compound 51] was 58.9 ± 2.8%; that for `COc1ccc(C(=O)/C=C(O)/C=C/c2cc(OC)c(OC)c(OC)c2)c(O)c1` [Compound 52] was 96.4 ± 0.4%.
Take `COc1ccc(O)c(C(=O)/C=C(O)/C=C/c2ccccc2)c1` [Compound 58]: the “NO Inhibition at 50 µM (%) ± S.E.M” value came to 92.8 ± 1.8%.
As to `COc1ccc(O)c(C(=O)/C=C(O)/C=C/c2cccc(Cl)c2)c1` [Compound 59], the “NO Inhibition at 50 µM (%) ± S.E.M” value was determined as 89.1 ± 3.6%.
On the same count and under the same terms, under `COc1ccc(O)c(C(=O)/C=C(O)/C=C/c2ccccc2OC)c1` [Compound 61] stands 65.8 ± 2.4%; under `COc1cccc(/C=C/C(O)=C/C(=O)c2cc(OC)ccc2O)c1` [Compound 62], 92.6 ± 1.2%.

Staying with this series, now noted: IFN-γ/LPS-stimulated RAW 264.7 cells; read-out: NO Inhibition IC50 (µM) ± S.E.M.
As for `O=C(/C=C(O)/C=C/c1cccc(Cl)c1)c1cc(Br)ccc1O` [Compound 43], the IC50 is less than 20 µM.

Still in this series, the particulars now being: Mus musculus, RAW264.7, 50 µM test concentration; IFN-γ/LPS-stimulated RAW 264.7 cells; read-out: NO Inhibition at 50 µM (%) ± S.E.M.
As for `Cc1ccc(/C=C/C(O)=C/C(=O)c2cc(Cl)ccc2O)o1` [Compound 38], the inhibition at 50 µM stood at 73.8 ± 1.14%.
On the same count and under the same terms, the value for `O=C(/C=C(O)/C=C/c1cccc(Cl)c1)c1cc(Br)ccc1O` [Compound 43] was 81.2 ± 5.16%.
For `COc1ccc(C(=O)/C=C(O)/C=C/c2ccccc2Cl)c(O)c1` [Compound 46], the inhibition at 50 µM is 76.2 ± 4.57%.
On the same count and under the same terms, the value for `COc1ccc(C(=O)/C=C(O)/C=C/c2ccccc2OC)c(O)c1` [Compound 48] was 66.3 ± 6.75%; that for `COc1cccc(/C=C/C(O)=C/C(=O)c2ccc(OC)cc2O)c1` [Compound 49] was 57.5 ± 6.45%.
Take `COc1ccc(C(=O)/C=C(O)/C=C/c2ccc(OC)c(OC)c2)c(O)c1` [Compound 51]: the inhibition at 50 µM came out at 58.9 ± 2.76%.
Same read-out and setting: under `COc1ccc(C(=O)/C=C(O)/C=C/c2cc(OC)c(OC)c(OC)c2)c(O)c1` [Compound 52] stands 96.39 ± 0.37%; under `COc1ccc(O)c(C(=O)/C=C(O)/C=C/c2ccccc2)c1` [Compound 58], 92.8 ± 1.8%; under `COc1ccc(O)c(C(=O)/C=C(O)/C=C/c2cccc(Cl)c2)c1` [Compound 59], 89.1 ± 3.56%.
On the same count and under the same terms, the value for `COc1ccc(O)c(C(=O)/C=C(O)/C=C/c2ccccc2OC)c1` [Compound 61] was 65.8 ± 2.37%.
Same read-out and setting: the value for `COc1cccc(/C=C/C(O)=C/C(=O)c2cc(OC)ccc2O)c1` [Compound 62] was 92.6 ± 1.18%.

Still in this series, the particulars now being: Mus musculus, RAW264.7, IFN-γ/LPS-stimulated RAW 264.7 cells; read-out: NO Inhibition IC50 (µM) ± S.E.M.
As for `Cc1ccc(/C=C/C(O)=C/C(=O)c2cc(Cl)ccc2O)o1` [Compound 38], the IC50 was determined as 25.5 ± 1.03 µM.
`O=C(/C=C(O)/C=C/c1cccc(Cl)c1)c1cc(Br)ccc1O` [Compound 43]: the IC50 came out at 19.8 ± 0.907 µM.
On the same count and under the same terms, under `COc1ccc(C(=O)/C=C(O)/C=C/c2ccccc2Cl)c(O)c1` [Compound 46] stands 58.5 ± 2.45 µM; under `COc1ccc(C(=O)/C=C(O)/C=C/c2ccccc2OC)c(O)c1` [Compound 48], 39 ± 1.24 µM.
The same measure, in the same setting: under `COc1cccc(/C=C/C(O)=C/C(=O)c2ccc(OC)cc2O)c1` [Compound 49] stands 45.8 ± 0.804 µM.
Same read-out and setting: under `COc1ccc(C(=O)/C=C(O)/C=C/c2ccc(OC)c(OC)c2)c(O)c1` [Compound 51] stands 21.7 ± 0.5 µM; under `COc1ccc(C(=O)/C=C(O)/C=C/c2cc(OC)c(OC)c(OC)c2)c(O)c1` [Compound 52], 29.3 ± 0.306 µM; under `COc1ccc(O)c(C(=O)/C=C(O)/C=C/c2ccccc2)c1` [Compound 58], 25.9 ± 0.325 µM.
As for `COc1ccc(O)c(C(=O)/C=C(O)/C=C/c2cccc(Cl)c2)c1` [Compound 59], the IC50 was 35.7 ± 0.789 µM.
As to `COc1ccc(O)c(C(=O)/C=C(O)/C=C/c2ccccc2OC)c1` [Compound 61], the IC50 was determined as 27.41 ± 0.207 µM.
On the same count and under the same terms, the value for `COc1cccc(/C=C/C(O)=C/C(=O)c2cc(OC)ccc2O)c1` [Compound 62] was 35.06 ± 0.165 µM.

Still in this series, the particulars now being: Mus musculus, RAW264.7, Table 6, NO suppression IC50 used for QSAR; unit inferred; read-out: IC50.
Turning to `Cc1ccc(/C=C/C(O)=C/C(=O)c2cc(Cl)ccc2O)o1` [Compound 38], the IC50 worked out at 25.5 ± 1 µM.
Same read-out and setting: under `O=C(/C=C(O)/C=C/c1cccc(Cl)c1)c1cc(Br)ccc1O` [Compound 43] stands 19.8 ± 0.9 µM; under `COc1ccc(C(=O)/C=C(O)/C=C/c2ccccc2Cl)c(O)c1` [Compound 46], 58.5 ± 2.4 µM; under `COc1ccc(C(=O)/C=C(O)/C=C/c2ccccc2OC)c(O)c1` [Compound 48], 39 ± 1.2 µM.
The same measure, in the same setting: under `COc1cccc(/C=C/C(O)=C/C(=O)c2ccc(OC)cc2O)c1` [Compound 49] stands 45.8 ± 0.8 µM.
`COc1ccc(C(=O)/C=C(O)/C=C/c2ccc(OC)c(OC)c2)c(O)c1` [Compound 51]: the IC50 was 21.7 ± 0.5 µM.
Consider `COc1ccc(C(=O)/C=C(O)/C=C/c2cc(OC)c(OC)c(OC)c2)c(O)c1` [Compound 52], for which the IC50 worked out at 29.3 ± 0.3 µM.
Same read-out and setting: under `COc1ccc(O)c(C(=O)/C=C(O)/C=C/c2ccccc2)c1` [Compound 58] stands 25.9 ± 0.3 µM; under `COc1ccc(O)c(C(=O)/C=C(O)/C=C/c2cccc(Cl)c2)c1` [Compound 59], 35.7 ± 0.8 µM.
The same measure, in the same setting: under `COc1ccc(O)c(C(=O)/C=C(O)/C=C/c2ccccc2OC)c1` [Compound 61] stands 27.4 ± 0.2 µM; under `COc1cccc(/C=C/C(O)=C/C(=O)c2cc(OC)ccc2O)c1` [Compound 62], 35.1 ± 0.2 µM.

The same series, now with this note: Mus musculus, RAW264.7, −log IC50 of NO suppression; read-out: pIC50 (converted).
With `Cc1ccc(/C=C/C(O)=C/C(=O)c2cc(Cl)ccc2O)o1` [Compound 38], the IC50 is 25.7 µM.
As to `O=C(/C=C(O)/C=C/c1cccc(Cl)c1)c1cc(Br)ccc1O` [Compound 43], the IC50 is 20 µM.
With `COc1ccc(C(=O)/C=C(O)/C=C/c2ccccc2Cl)c(O)c1` [Compound 46], the IC50 was 58.9 µM.
Still for that read-out and setting: under `COc1ccc(C(=O)/C=C(O)/C=C/c2ccccc2OC)c(O)c1` [Compound 48] stands 38.9 µM.
On the same count and under the same terms, the value for `COc1cccc(/C=C/C(O)=C/C(=O)c2ccc(OC)cc2O)c1` [Compound 49] was 45.7 µM; that for `COc1ccc(C(=O)/C=C(O)/C=C/c2ccc(OC)c(OC)c2)c(O)c1` [Compound 51] was 21.9 µM.
Same read-out and setting: under `COc1ccc(C(=O)/C=C(O)/C=C/c2cc(OC)c(OC)c(OC)c2)c(O)c1` [Compound 52] stands 29.5 µM.
Regarding `COc1ccc(O)c(C(=O)/C=C(O)/C=C/c2ccccc2)c1` [Compound 58], the IC50 is 25.7 µM.
The same measure, in the same setting: under `COc1ccc(O)c(C(=O)/C=C(O)/C=C/c2cccc(Cl)c2)c1` [Compound 59] stands 35.5 µM.
Same read-out and setting: the value for `COc1ccc(O)c(C(=O)/C=C(O)/C=C/c2ccccc2OC)c1` [Compound 61] was 27.5 µM; that for `COc1cccc(/C=C/C(O)=C/C(=O)c2cc(OC)ccc2O)c1` [Compound 62] was 34.7 µM.

Test system in the next series: not listed separately
The experiment in a line: Cell cytotoxicity determination (MTT assay). The settings on record: mouse, RAW 264.7 macrophage cells, RAW 264.7 cells, read-out: Cytotoxicity IC50 (µM) ± S.E.M. The format is cell-based, murine. As to the method: (§1) The synthesized compounds were screened for NO suppression activity in IFN-γ/LPS-stimulated RAW 264.7 macrophages at a 50 µM test concentration. […] The IC50 values of the fifty-seven bioactive compounds were determined and compared to that of the positive control, curcumin. An MTT assay was also carried out to confirm that NO inhibition was not due to cytotoxicity. […] The complete bioassay results of all the compounds are provided as Table S2 in Supplementary Data.
(§2) RAW 264.7 murine macrophages cells obtained from American Type Culture Collection (ATCC, Rockville, MD, USA) were grown in Dulbecco’s Modified Eagle’s Medium (DMEM) containing 10% fetal bovine serum (FBS) and 1% penicillin/streptomycin in a 95% air and 5% CO2 atmosphere at 37 °C.
(§3) Supernatant in each well was removed followed by addition of 100 µL DMEM. Subsequently, 20 µL of 3-(4,5-dimethylthiazol-2-yl)-2,5-diphenyltetrazolium bromide (MTT, 5 mg/mL) was then added and the plate was incubated in a 95% air and 5% CO2 atmosphere at 37 °C for 4 h. The mixture of culture media and MTT in all wells were removed and the purplish formazan crystals formed were dissolved in dimethyl sulfoxide (DMSO) and further incubated for 15 min at room temperature. The color intensity was then measured at 570 nm at room temperature.
For orientation: Tetrazolium dyes change colour on reduction, which living cells bring about.
On to `Cc1ccc(/C=C/C(O)=C/C(=O)c2cc(Cl)ccc2O)o1` [Compound 38], for which the IC50 is greater than 100 µM.
In the case of `O=C(/C=C(O)/C=C/c1cccc(Cl)c1)c1cc(Br)ccc1O` [Compound 43], the IC50 was greater than 100 µM.
The same measure, in the same setting: under `COc1ccc(C(=O)/C=C(O)/C=C/c2ccccc2Cl)c(O)c1` [Compound 46] stands greater than 100 µM; under `COc1ccc(C(=O)/C=C(O)/C=C/c2ccccc2OC)c(O)c1` [Compound 48], 88.5 ± 2.54 µM.
The same measure, in the same setting: the value for `COc1cccc(/C=C/C(O)=C/C(=O)c2ccc(OC)cc2O)c1` [Compound 49] was greater than 100 µM.
As for `COc1ccc(C(=O)/C=C(O)/C=C/c2ccc(OC)c(OC)c2)c(O)c1` [Compound 51], the IC50 was greater than 100 µM.
The same measure, in the same setting: under `COc1ccc(C(=O)/C=C(O)/C=C/c2cc(OC)c(OC)c(OC)c2)c(O)c1` [Compound 52] stands greater than 100 µM.
On to `COc1ccc(O)c(C(=O)/C=C(O)/C=C/c2ccccc2)c1` [Compound 58], for which the IC50 is greater than 100 µM.
On the same count and under the same terms, under `COc1ccc(O)c(C(=O)/C=C(O)/C=C/c2cccc(Cl)c2)c1` [Compound 59] stands greater than 100 µM.
Take `COc1ccc(O)c(C(=O)/C=C(O)/C=C/c2ccccc2OC)c1` [Compound 61]: the IC50 is greater than 100 µM.
Consider `COc1cccc(/C=C/C(O)=C/C(=O)c2cc(OC)ccc2O)c1` [Compound 62], for which the IC50 is greater than 100 µM.

The next series relates to RAW 264.7 cells. Kind of series: Cell cytotoxicity determination (MTT assay). The format is cell-based, murine. The settings on record: read-out: Cytotoxicity IC50 (µM) ± S.E.M. As to the method: as §1, §2, §3
With `COc1ccc(C(=O)/C=C(O)/C=C/c2ccccc2OC)c(O)c1` [Compound 48], the IC50 was found to be 88.6 ± 2.5 µM.
